# What was measured:
# benzodiazepine receptors = assay: displacement of 3H-flunitrazepam binding, in vitro (rat brain membranes); details: 3H-flunitrazepam 1.0 nM, 0° C.
# [1] = 4-plate assay, anxiolytic activity (Boissier et al.); format: in vivo; details: Mus musculus, ip; minimum lowest dose which increases locomotor activity of punished mice; i.p.; read-out: Anxiolytic Activity MED
# Procedure: The compounds of this invention display especially anxiolytic and anticonvulsive activities. In order to study the anxiolytic effect, the compounds were tested in the 4-plate assay according to the method by Boissier et al., Eur. J. Pharmacol. 4:145-150 ([…]). The table indicates the minimum lowest dose (MED) which increases the locomotor activity of the punished mice after i.p. treatment.
# benzodiazepine receptor = assay: inhibition of 3H-flunitrazepam binding in live brain, in vivo (mice); details: normally i.p., 3H-flunitrazepam i.v. after 15 min
Compound,Inhibition of 3H-Flunitrazepam Binding IC50 in vitro (benzodiazepine receptors) [ng/mL],minimal effective dose [1] [mg/kg],Inhibition of 3H-Flunitrazepam Binding ED50 in vivo (benzodiazepine receptor) [mg/kg]
CCc1noc(-c2cc3c(cn2)[nH]c2cccc(Oc4ncccn4)c23)n1,0.28,3.13,2.8
COCc1c(C(=O)OC(C)C)ncc2[nH]c3ccc(Oc4ccc(Br)cn4)cc3c12,0.75,3.13,2.7
